Data taken from patent US10689362B2, “Quinoxaline compounds as type III receptor tyrosine kinase inhibitors” (Development Center for Biotechnology, priority 2016, dated 2020).

Experiments:
[1] = system: MV4-11 human acute myeloid leukemia cell with FLT3-ITD mutation; test: MV4-11 cell proliferation assay (CellTiter-96); type: cell-based; conditions: Cytotoxicity, MV4-11 cells, 72 hours
Summary of the method: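 Growth inhibition read as absorbance at 490 nm after 4 hours with CellTiter96 AQueous One reagent. Before that, FLT3-ITD-dependent MV4-11 cells (6500 cells/well, overnight at 37° C., 5% CO2) received a rising compound concentration series for 72 hours.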

FLT3 kinase = FLT3 kinase (Homo sapiens (Human), UniProt P36888); test: FLT3 kinase assay (radiometric); type: biochemical; conditions: bound
Summary of the method: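 Recombinant FLT3 (5 ng) phosphorylating poly(Glu4:Tyr1) (2 μg) with 10 μM ATP plus [^33P]-ATP in MOPS pH 7.0 buffer, 4% DMSO final, 60 min at 30° C. Reaction stopped with phosphoric acid, filter-captured and scintillation-counted; IC50 derived from dose-response.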

[2] = system: CSF-1-dependent M-NFS-60 mouse myeloid leukemia cell; test: M-NFS-60 cell proliferation assay (CellTiter-96); type: cell-based; conditions: Cytotoxicity, M-NFS-60 cells, 72 hours
Summary of the method: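 Growth inhibition was measured as absorbance at 490 nm after 4 h with CellTiter 96 AQueous One reagent. Beforehand, M-NFS-60 cells (2000/well, CSF-1-dependent) were treated with a compound dilution series for 72 h following overnight plating at 37 °C, 5% CO2.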

[3] = system: Kasumi-1 human acute myeloid leukemia cell with c-KIT N822K activating mutation; test: Kasumi-1 cell proliferation assay (CellTiter-96); type: cell-based; conditions: Cytotoxicity, Kasumi-1 cells, 72 hours
Summary of the method: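 After 72 h of treatment with a compound dilution series, growth of c-KIT N822K-driven Kasumi-1 cells (64000 per well, plated the day before) was read as 490 nm absorbance. This followed a 4 h incubation with CellTiter96 AQueous One reagent.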

c-KIT kinase = c-KIT kinase (Homo sapiens (Human), UniProt P10721); test: c-KIT kinase assay (radiometric); type: biochemical; conditions: class symbol
Summary of the method: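 Recombinant c-Kit (20 ng) with 2 μg Poly-(Glu4:Tyr1) in MOPS pH 7.0 buffer with MgCl2/MnCl2, 10 μM ATP plus [^33P]-ATP, 4% DMSO final, 60 min at 30° C. Stopped with phosphoric acid, filter-captured and scintillation counted; IC50 from curve fit.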

CSF-1R kinase = CSF-1R kinase (Homo sapiens (Human), UniProt P07333); test: CSF-1R kinase assay (AlphaScreen); type: biochemical; conditions: class symbol
Protocol: Inhibition of CSF-1R kinase activity by a test compound disclosed herein was estimated by AlphaScreen (PerkinElmer). […] Reactions were incubated at 30° C. for 45 min and stopped by adding 5 μL of 50 mM EDTA. Analysis of resulting product using an AlphaScreen kit, and counted with Enspire Alpha (PerkinElmer). […] The IC50 values of quinoxaline compounds of this invention against CSF-1R kinase were determined using the GraphPad Prism 5 software.

PDGFRβ kinase = PDGFRβ kinase (Homo sapiens (Human), UniProt P09619); test: PDGFRβ kinase assay (radiometric); type: biochemical
Summary of the method: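 Radiometric assay: recombinant PDGFRβ with poly(Glu4:Tyr1) in MOPS pH 7.0 buffer containing Mg2+/Mn2+, 10 μM ATP plus [33P]-ATP, and compound at 4% DMSO final. Incubated 60 min at 30° C, stopped with phosphoric acid, filter-captured and scintillation-counted. IC50 from curve fitting.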

[4] = system: osteoclast precursors (osteoclast differentiation); test: Osteoclast tartrate-resistant acid phosphatase assay; type: cell-based; conditions: 168 h, at 1 μM treatment, 7 days, RANKL and M-CSF, read-out: inhibition activity against osteoclast differentiation
Summary of the method: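 Differentiation inhibition was scored at 1 μM compound in duplicate, using supernatant TRAP activity read at 550 nm with an acid phosphatase kit.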

[5] = system: THP-1 human acute monocytic leukemia cell harboring NRAS G12D mutation; test: THP-1 cell proliferation assay (counter screen, CellTiter-96); type: cell-based; conditions: Cytotoxicity, THP-1 cells (counter screen), 72 hours
Summary of the method: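 Growth inhibition read as 490 nm absorbance after 4 h with CellTiter96 AQueous One reagent, following 72 h compound exposure at rising concentrations. THP-1 (NRAS G12D) cells plated at 5000 per well and left overnight at 37 °C, 5% CO2 before dosing.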

Chain of PDGFRβ kinase (P09619 33-1106): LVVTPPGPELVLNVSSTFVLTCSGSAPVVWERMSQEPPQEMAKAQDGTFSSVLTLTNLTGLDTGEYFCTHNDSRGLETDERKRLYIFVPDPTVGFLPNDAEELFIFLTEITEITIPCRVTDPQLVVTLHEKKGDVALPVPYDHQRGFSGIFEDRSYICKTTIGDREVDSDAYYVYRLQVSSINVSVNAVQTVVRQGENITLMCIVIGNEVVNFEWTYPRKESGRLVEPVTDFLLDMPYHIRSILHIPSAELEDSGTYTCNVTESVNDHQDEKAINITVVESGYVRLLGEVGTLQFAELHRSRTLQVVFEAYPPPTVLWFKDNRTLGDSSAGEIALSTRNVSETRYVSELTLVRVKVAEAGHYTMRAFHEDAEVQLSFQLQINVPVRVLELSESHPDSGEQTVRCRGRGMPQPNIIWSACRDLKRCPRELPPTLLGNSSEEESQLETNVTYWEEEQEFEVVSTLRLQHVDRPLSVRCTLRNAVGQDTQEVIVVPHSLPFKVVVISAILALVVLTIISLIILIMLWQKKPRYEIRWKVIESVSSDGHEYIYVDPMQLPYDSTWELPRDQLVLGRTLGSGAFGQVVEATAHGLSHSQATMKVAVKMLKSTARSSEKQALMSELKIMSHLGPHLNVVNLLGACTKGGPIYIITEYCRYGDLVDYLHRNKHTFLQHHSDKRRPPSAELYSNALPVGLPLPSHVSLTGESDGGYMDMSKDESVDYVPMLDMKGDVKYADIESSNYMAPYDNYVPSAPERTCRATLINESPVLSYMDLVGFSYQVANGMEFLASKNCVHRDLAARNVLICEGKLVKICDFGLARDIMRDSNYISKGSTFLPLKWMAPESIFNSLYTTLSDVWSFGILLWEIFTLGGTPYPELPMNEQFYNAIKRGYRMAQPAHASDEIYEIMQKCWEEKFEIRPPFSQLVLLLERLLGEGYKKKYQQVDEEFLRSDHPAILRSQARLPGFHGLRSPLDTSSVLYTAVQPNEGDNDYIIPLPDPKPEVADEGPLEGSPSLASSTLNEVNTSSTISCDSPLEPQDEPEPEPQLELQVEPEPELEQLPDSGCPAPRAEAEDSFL
Chain of c-KIT kinase (P10721 26-976): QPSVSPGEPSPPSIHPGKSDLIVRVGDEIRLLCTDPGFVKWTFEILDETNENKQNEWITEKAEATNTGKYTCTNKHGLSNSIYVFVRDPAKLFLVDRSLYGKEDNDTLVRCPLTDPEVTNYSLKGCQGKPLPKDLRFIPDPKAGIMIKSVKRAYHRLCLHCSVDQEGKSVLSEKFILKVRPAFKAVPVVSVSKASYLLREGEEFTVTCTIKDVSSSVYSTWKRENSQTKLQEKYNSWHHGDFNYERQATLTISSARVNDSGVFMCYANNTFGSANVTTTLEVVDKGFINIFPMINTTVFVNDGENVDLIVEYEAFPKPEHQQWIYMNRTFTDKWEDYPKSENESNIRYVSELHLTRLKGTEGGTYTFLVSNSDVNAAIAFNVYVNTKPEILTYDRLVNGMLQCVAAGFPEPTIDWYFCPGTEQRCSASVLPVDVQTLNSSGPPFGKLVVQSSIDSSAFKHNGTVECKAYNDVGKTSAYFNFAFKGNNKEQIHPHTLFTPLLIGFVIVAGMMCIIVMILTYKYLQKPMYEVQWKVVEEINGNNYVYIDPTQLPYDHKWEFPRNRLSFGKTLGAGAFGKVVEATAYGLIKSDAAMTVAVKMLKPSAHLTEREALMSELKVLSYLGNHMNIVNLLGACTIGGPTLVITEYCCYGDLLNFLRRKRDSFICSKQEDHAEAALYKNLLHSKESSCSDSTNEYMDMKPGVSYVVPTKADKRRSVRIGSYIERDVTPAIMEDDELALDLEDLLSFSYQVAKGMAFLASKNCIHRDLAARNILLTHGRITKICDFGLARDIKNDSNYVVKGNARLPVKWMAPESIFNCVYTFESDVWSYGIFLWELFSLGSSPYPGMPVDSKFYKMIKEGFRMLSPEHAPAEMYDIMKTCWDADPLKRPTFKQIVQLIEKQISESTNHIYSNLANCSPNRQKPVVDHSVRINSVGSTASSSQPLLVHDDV
Chain of FLT3 kinase (P36888 27-993): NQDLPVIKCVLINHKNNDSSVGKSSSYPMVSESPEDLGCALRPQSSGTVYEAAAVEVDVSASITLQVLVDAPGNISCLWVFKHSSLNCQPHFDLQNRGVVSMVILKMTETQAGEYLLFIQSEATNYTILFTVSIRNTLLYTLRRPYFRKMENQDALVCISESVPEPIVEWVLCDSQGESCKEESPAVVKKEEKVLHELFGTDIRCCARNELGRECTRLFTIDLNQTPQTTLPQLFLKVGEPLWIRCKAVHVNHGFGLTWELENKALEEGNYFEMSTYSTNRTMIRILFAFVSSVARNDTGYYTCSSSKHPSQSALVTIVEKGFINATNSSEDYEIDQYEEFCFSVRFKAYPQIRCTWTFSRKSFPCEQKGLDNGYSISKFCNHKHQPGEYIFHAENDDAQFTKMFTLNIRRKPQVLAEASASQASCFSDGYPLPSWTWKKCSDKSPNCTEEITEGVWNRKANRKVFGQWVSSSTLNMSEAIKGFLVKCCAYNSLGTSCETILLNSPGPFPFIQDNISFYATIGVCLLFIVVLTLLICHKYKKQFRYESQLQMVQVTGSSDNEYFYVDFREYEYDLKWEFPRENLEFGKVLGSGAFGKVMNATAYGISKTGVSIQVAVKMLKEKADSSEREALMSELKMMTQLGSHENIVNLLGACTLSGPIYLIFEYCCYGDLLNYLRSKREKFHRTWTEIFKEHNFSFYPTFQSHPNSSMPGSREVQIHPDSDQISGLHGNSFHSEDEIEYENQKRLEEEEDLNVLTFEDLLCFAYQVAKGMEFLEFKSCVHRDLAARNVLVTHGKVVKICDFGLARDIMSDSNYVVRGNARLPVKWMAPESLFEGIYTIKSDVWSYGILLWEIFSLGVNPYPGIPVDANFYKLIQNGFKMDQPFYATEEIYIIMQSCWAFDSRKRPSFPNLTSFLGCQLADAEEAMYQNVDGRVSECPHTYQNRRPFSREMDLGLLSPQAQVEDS
Chain of CSF-1R kinase (P07333 20-972): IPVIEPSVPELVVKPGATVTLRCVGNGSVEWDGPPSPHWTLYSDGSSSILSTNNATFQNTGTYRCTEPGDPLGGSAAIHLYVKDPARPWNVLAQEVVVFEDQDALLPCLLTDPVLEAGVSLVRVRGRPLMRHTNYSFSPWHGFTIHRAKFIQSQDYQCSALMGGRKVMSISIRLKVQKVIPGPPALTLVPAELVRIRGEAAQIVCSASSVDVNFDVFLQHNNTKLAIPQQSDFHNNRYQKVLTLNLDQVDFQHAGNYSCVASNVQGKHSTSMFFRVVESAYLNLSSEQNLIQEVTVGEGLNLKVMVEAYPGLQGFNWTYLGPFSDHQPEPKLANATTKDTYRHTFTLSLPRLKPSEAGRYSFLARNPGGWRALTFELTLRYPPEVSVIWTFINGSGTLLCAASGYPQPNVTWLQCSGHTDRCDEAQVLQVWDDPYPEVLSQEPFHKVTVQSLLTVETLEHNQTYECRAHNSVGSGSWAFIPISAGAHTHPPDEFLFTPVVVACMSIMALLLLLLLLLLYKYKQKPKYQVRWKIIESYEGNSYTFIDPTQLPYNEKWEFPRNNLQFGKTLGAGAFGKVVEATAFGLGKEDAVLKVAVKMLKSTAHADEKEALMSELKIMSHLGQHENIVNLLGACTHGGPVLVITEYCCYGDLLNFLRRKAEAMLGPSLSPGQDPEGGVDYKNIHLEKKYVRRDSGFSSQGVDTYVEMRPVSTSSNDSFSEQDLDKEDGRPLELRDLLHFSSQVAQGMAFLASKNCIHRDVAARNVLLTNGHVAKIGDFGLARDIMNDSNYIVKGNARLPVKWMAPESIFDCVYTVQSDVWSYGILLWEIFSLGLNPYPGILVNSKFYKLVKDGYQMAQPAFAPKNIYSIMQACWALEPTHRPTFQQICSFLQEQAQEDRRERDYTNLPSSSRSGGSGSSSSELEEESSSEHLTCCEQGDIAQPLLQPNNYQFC

| Compound | IC50 (FLT3 kinase) | IC50 (c-KIT kinase) | IC50 (CSF-1R kinase) | IC50 (PDGFRβ kinase; bound) | IC50 (PDGFRβ kinase; class symbol) | IC50 [1] | IC50 [2] | IC50 [3] | inhibition at 1 µM [4] | IC50 [5] |
| --- | --- | --- | --- | --- | --- | --- | --- | --- | --- | --- |
| COc1cc(Nc2ccc3ncc(N4CCOCC4)nc3c2C#N)ccc1OCc1ccc2c(c1)OCO2 [Example 81, 6-((4-(benzo[d][1,3]dioxol-5-ylmethoxy)-3-methoxyphenyl)amino)-3-morpholinoquinoxaline-5-carbonitrile] | > 1000 nM | 300 to 1000 nM | < 100 nM | > 1000 nM |  | > 10 µM | < 300 nM | > 10000 nM | > 50% | > 10 µM |
| COc1cc(Nc2ccc3ncc(N(C)C)nc3c2C#N)ccc1OCc1ccc(C)nc1 [Example 133, 3-(dimethylamino)-6-((3-methoxy-4-((6-methylpyridin-3-yl)methoxy)phenyl)amino)quinoxaline-5-carbonitrile] | > 1000 nM | < 100 nM | < 100 nM | > 1000 nM |  | > 10 µM | < 300 nM | 300 to 1000 nM | > 50% | > 10 µM |
| COc1ccc(COc2ccc(Nc3ccc4ncc(N5CCNCC5)nc4c3C#N)cc2OC)cn1 [Example 59, 6-((3-methoxy-4-((6-methoxypyridin-3-yl)methoxy)phenyl)amino)-3-(piperazin-1-yl)quinoxaline-5-carbonitrile] | > 1000 nM | 100 to 300 nM | < 100 nM | > 1000 nM |  | 1 to 10 µM | < 300 nM | 300 to 1000 nM | > 50% | 1 to 10 µM |
| COc1ccc(COc2ccc(Nc3ccc4ncc(NC(C)C)nc4c3C#N)cc2OC)cc1 [Example 17, 3-(isopropylamino)-6-((3-methoxy-4-((4-methoxybenzyl)oxy)phenyl)amino)quinoxaline-5-carbonitrile] | > 1000 nM | < 100 nM | < 100 nM | > 1000 nM |  | 1 to 10 µM | < 300 nM | 300 to 1000 nM | > 50% | > 10 µM |
| COc1cc(Nc2ccc3ncc(N4CCOCC4)nc3c2C#N)ccc1OCc1cnn(CCF)c1 [Example 131, 6-((4-((1-(2-fluoroethyl)-1H-pyrazol-4-yl)methoxy)-3-methoxyphenyl)amino)-3-morpholinoquinoxaline-5-carbonitrile] | > 1000 nM | 300 to 1000 nM | < 100 nM | > 1000 nM |  | > 10 µM | < 300 nM | > 10000 nM | > 50% | > 10 µM |
| CCOc1ccc(COc2ccc(Nc3ccc4ncc(N5CCOCC5)nc4c3C#N)cc2OC)cc1 [Example 35, 6-((4-((4-ethoxybenzyl)oxy)-3-methoxyphenyl)amino)-3-morpholinoquinoxaline-5-carbonitrile] | > 1000 nM | < 100 nM | < 100 nM |  | 300 to 1000 nM | 1 to 10 µM | < 300 nM | < 300 nM | > 50% | > 10 µM |
| COc1ccc(COc2ccc(N(C)c3ccc4ncc(N5CCOCC5)nc4c3C#N)cc2OC)cc1 [Example 60, 6-((3-methoxy-4-((4-methoxybenzyl)oxy)phenyl)(methyl)amino)-3-morpholinoquinoxaline-5-carbonitrile] | > 1000 nM | 300 to 1000 nM | < 100 nM | > 1000 nM |  | 1 to 10 µM | < 300 nM | 1000 to 10000 nM | > 50% | > 10 µM |
| COc1ccc(COc2ccc(Nc3ccc4ncc(N5CCOCC5)nc4c3C#N)cc2OC)cn1 [Example 50, 6-((3-methoxy-4-((6-methoxypyridin-3-yl)methoxy)phenyl)amino)-3-morpholinoquinoxaline-5-carbonitrile] | > 1000 nM | 100 to 300 nM | < 100 nM | > 1000 nM |  | > 10 µM | < 300 nM | 300 to 1000 nM | > 50% | > 10 µM |
| COc1ccc(COc2ccc(Nc3ccc4ncc(N5CCN(CCO)CC5)nc4c3C#N)cc2OC)cc1 [Example 66, 3-(4-(2-hydroxyethyl)piperazin-1-yl)-6-((3-methoxy-4-((4-methoxybenzyl)oxy)phenyl)amino)quinoxaline-5-carbonitrile] | > 1000 nM | < 100 nM | < 100 nM |  | 300 to 1000 nM | 1 to 10 µM | < 300 nM | < 300 nM | > 50% | > 10 µM |

More lines, main results first:

| IC50 (FLT3 kinase) | IC50 (c-KIT kinase) | IC50 (CSF-1R kinase) | IC50 (PDGFRβ kinase; bound) | IC50 (PDGFRβ kinase; class symbol) | Compound | IC50 [1] | IC50 [2] | IC50 [3] | inhibition at 1 µM [4] | IC50 [5] |
| --- | --- | --- | --- | --- | --- | --- | --- | --- | --- | --- |
| > 1000 nM | < 100 nM | < 100 nM | > 1000 nM |  | COc1ccc(COc2ccc(Nc3ccc4ncc(N5CCOCC5)nc4c3C#N)cc2OC)cc1F [Example 93, 6-((4-((3-fluoro-4-methoxybenzyl)oxy)-3-methoxy-phenyl)amino)-3-morpholinoquinoxaline-5-carbonitrile] | > 10 µM | < 300 nM | < 300 nM | > 50% | > 10 µM |
| > 1000 nM | < 100 nM | < 100 nM | > 1000 nM |  | COc1ccc(COc2ccc(Nc3ccc4ncc(N5CCC(OC(C)=O)CC5)nc4c3C#N)cc2OC)cc1 [Example 68, 1-(8-cyano-7-((3-methoxy-4-((4-methoxybenzyl)oxy)phenyl)amino)quinoxalin-2-yl)piperidin-4-yl acetate] | 1 to 10 µM | < 300 nM | < 300 nM | > 50% | > 10 µM |
| > 1000 nM | < 100 nM | < 100 nM | > 1000 nM |  | COc1ccc(COc2ccc(Nc3ccc4ncc(N5CCC(N(C)C)CC5)nc4c3C#N)cc2OC)cc1F [Example 85, 3-(4-(dimethylamino)piperidin-1-yl)-6-((4-((3-fluoro-4-methoxy-benzyl)oxy)-3-methoxyphenyl)amino)quinoxaline-5-carbonitrile] | 1 to 10 µM | < 300 nM | < 300 nM | > 50% | 1 to 10 µM |
| > 1000 nM | < 100 nM | < 100 nM |  | 300 to 1000 nM | COc1ccc(COc2ccc(Nc3ccc4ncc(N5CCCC5)nc4c3C#N)cc2OC)cc1 [Example 62, 6-((3-methoxy-4-((4-methoxybenzyl)oxy)phenyl)amino)-3-(pyrrolidin-1-yl)quinoxaline-5-carbonitrile] | > 10 µM | < 300 nM | < 300 nM | > 50% | > 10 µM |
| > 1000 nM | 100 to 300 nM | < 100 nM | > 1000 nM |  | COc1ccc(COc2ccc(Nc3ccc4ncc(N5CCC5)nc4c3C#N)cc2OC)cn1 [Example 86, 3-(azetidin-1-yl)-6-((3-methoxy-4-((6-methoxpyridin-3-yl)methoxy)phenyl)amino)quinoxaline-5-carbonitrile] | > 10 µM | < 300 nM | 1000 to 10000 nM | > 50% | > 10 µM |
| > 1000 nM | 100 to 300 nM | < 100 nM | > 1000 nM |  | COc1ccc(COc2ccc(Nc3ccc4ncc(N(C)C)nc4c3C#N)cc2OC)cc1C#N [Example 139, 6-((4-((3-cyano-4-methoxybenzyl)oxy)-3-methoxyphenyl)amino)-3-(dimethylamino)quinoxaline-5-carbonitrile] | > 10 µM | < 300 nM | > 10000 nM | > 50% | > 10 µM |
